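1) Cells in 96-well plates. 2) Compound, 48 h, 5 concentrations. 3) Linear interpolation between surrounding doses. 4) Unreached endpoint = highest concentration. Here, GI50 denotes the concentration required for 50% inhibition of growth.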 Active and inactive are the calls of the source. Cut-off read from the data, not from the text of the source: active = GI50 up to about 1.1 µM and inactive = higher.

These results are taken from ChEMBL document CHEMBL1201862, “PubChem BioAssay data set” (2004).

Some test systems named below: DMS-114; XF498; M19-MEL; LXFL 529; RXF 631; DMS-273; KM-20L2; DLD-1; SNB-78.
Common to all, as to test: inhibition of tumour cell growth, NCI panel, 48 h

In the case of `CCCN(CCC)c1c([N+](=O)[O-])cc(S(N)(=O)=O)cc1[N+](=O)[O-]` [ORYZALIN], the GI50 is 19 µM (inactive) with DMS-114; 16.6 µM (inactive) with XF498; 20.2 µM (inactive) in the experiment with M19-MEL; 16.1 µM (inactive) in the experiment on LXFL 529; 18.6 µM (inactive) in the experiment with RXF 631; 18.8 µM (inactive) in the experiment with DMS-273. The GI50 is 19.3 µM (inactive) in the experiment with KM-20L2 and 19.1 µM (inactive) in the experiment with DLD-1.
As for `CCN(CC)C(c1ccc(N(C)C)cc1)C(c1ccc(N(C)C)cc1)N(CC)CC` (stereo not given), the GI50 in the experiment on DMS-114 is 14.5 µM (inactive); with M19-MEL it was 23.9 µM (inactive); in the experiment on LXFL 529 it was 30.3 µM (inactive); in the experiment on RXF 631, > 72.9 µM (inactive); in the experiment with DMS-273, 44.8 µM (inactive); in the experiment with SNB-78, 21.2 µM (inactive). The GI50 in the experiment with KM-20L2 was 64 µM (inactive).
In the case of `O=C1c2cccc([N+](=O)[O-])c2C(=O)c2nccnc21`, the GI50 was 0.982 µM (active) with DMS-114; 0.122 µM (active) in the experiment with M19-MEL; 3.5 µM (inactive) in the experiment with DMS-273; 3.09 µM (inactive) with SNB-78; 2.7 µM (inactive) in the experiment with KM-20L2; 2.84 µM (inactive) in the experiment on DLD-1.
For the compound `Oc1ccc2occ3c2c1CCC3`, the GI50 in the experiment on DMS-114 was 81.8 µM (inactive); in the experiment on XF498, 67 µM (inactive); in the experiment with M19-MEL, > 100 µM (inactive); in the experiment on LXFL 529, > 100 µM (inactive); in the experiment on RXF 631, > 100 µM (inactive); in the experiment with DMS-273, > 100 µM (inactive). Moreover, the GI50 in the experiment with SNB-78, in the experiment with KM-20L2 and in the experiment with DLD-1 was > 100 µM (inactive) each time.
`O=C(O)c1ccc(C2C(=O)N[C@@H]3CCC[C@H]23)cc1` (stereo not given in full): the GI50 in the experiment on DMS-114, in the experiment with M19-MEL, with LXFL 529, with DMS-273, in the experiment with SNB-78 and in the experiment on KM-20L2 was > 100 µM (inactive) throughout. In addition, in the experiment with DLD-1, the GI50 was > 100 µM (inactive).
As for `COc1ccc(/C(=C/n2ccnc2)C(=O)c2ccc(OC)c(OC)c2)cc1`, the GI50 in the experiment with DMS-114, in the experiment with XF498, in the experiment on M19-MEL, in the experiment on LXFL 529, in the experiment on DMS-273 and with KM-20L2 was > 100 µM (inactive) throughout. Moreover, in the experiment on DLD-1, the GI50 is > 100 µM (inactive).
Turning to `CCCN(CCCC(NC(C)=O)C(=O)NCc1ccccc1)C(=O)N(CCCl)N=O` (stereo not given), the GI50 with DMS-114 was 14.4 µM (inactive); in the experiment with XF498, 9.89 µM (inactive); in the experiment with M19-MEL, 12.2 µM (inactive); with LXFL 529 it was 18 µM (inactive); in the experiment on RXF 631 it was 17.4 µM (inactive); with DMS-273, 4.52 µM (inactive). In addition, the values for the GI50 in the experiment on SNB-78, in the experiment with KM-20L2 and in the experiment on DLD-1 were 15.4 µM (inactive), 15.7 µM (inactive) and 14.5 µM (inactive), respectively.
Consider `NC(=O)c1c([N+](=O)[O-])cc(C(F)(F)F)cc1[N+](=O)[O-]`, for which the GI50 was 26.9 µM (inactive) with DMS-114; > 100 µM (inactive) in the experiment on XF498; > 100 µM (inactive) in the experiment with LXFL 529; 35.1 µM (inactive) in the experiment on DMS-273; > 100 µM (inactive) in the experiment on SNB-78; 33.3 µM (inactive) in the experiment on KM-20L2. The GI50 in the experiment with DLD-1 is > 100 µM (inactive).
Turning to `Cc1ccc(-n2cc(/C(N)=N/O)c3ccccc3c2=O)cc1`, the GI50 with DMS-114, in the experiment on XF498, in the experiment on M19-MEL, with LXFL 529, in the experiment on DMS-273 and with KM-20L2 was > 100 µM (inactive) in each case.
With `COc1ccccc1/C=C(\NC(=O)c1ccccc1)c1nc2ccccc2[nH]1`, the GI50 in the experiment on DMS-114 is 29.4 µM (inactive); in the experiment with XF498, 36.1 µM (inactive); in the experiment on M19-MEL it was 38.3 µM (inactive); in the experiment on LXFL 529 it was 29.9 µM (inactive); in the experiment on RXF 631, > 100 µM (inactive); in the experiment on SNB-78 it was 53.3 µM (inactive). In addition, the GI50 was 59.8 µM (inactive) in the experiment with KM-20L2 and 37.3 µM (inactive) in the experiment with DLD-1.
`N/C(=N\O)N/N=C/c1ccc(O)c(O)c1`: the GI50 with DMS-114 was > 100 µM (inactive); with XF498 it was > 100 µM (inactive); in the experiment with M19-MEL, > 100 µM (inactive); in the experiment with LXFL 529, > 100 µM (inactive); with RXF 631 it was > 100 µM (inactive); in the experiment on DMS-273, 34.5 µM (inactive). For the same compound, the GI50 in the experiment with SNB-78, in the experiment on KM-20L2 and in the experiment with DLD-1 was > 100 µM (inactive) in each case.
As for `CCCCCCN(CCCCCC)C(=S)N/N=C(\C)c1ccccn1`, the GI50 is 0.571 µM (active) in the experiment on DMS-114; 0.208 µM (active) with LXFL 529; 1.02 µM (active) with RXF 631; 1.63 µM (inactive) with DMS-273; 0.711 µM (active) in the experiment with SNB-78; 0.673 µM (active) with KM-20L2. Besides, the GI50 in the experiment with DLD-1 was 1.26 µM (inactive).
On to `Cc1c[nH]c2c1C13CC1CN(C(=O)c1cc4cc(NC(=O)c5cc6ccccc6o5)ccc4[nH]1)C3=CC2=O` (stereo not given), for which the GI50 with DMS-114, with XF498, with M19-MEL, in the experiment on RXF 631, with SNB-78 and in the experiment on KM-20L2 was < 0.001 µM (active) in each case. In addition, the GI50 with DLD-1 is < 0.001 µM (active).
As for `CCOC(=O)C1=C(Nc2ccc(Cl)c(Cl)c2)OC/C1=N\NS(=O)(=O)c1ccc(C)cc1`, the GI50 is 56.4 µM (inactive) with DMS-114; 94 µM (inactive) with XF498; 94.6 µM (inactive) in the experiment on M19-MEL; 46.9 µM (inactive) in the experiment with LXFL 529; 29.6 µM (inactive) in the experiment on RXF 631; > 100 µM (inactive) with SNB-78. Besides, the figures for the GI50 in the experiment on KM-20L2 and with DLD-1 were 31.4 µM (inactive) and 39.8 µM (inactive), respectively.
Consider `O=C(CCCNC(=O)OCc1ccccc1)OCc1ccc2c(c1)C(=O)c1ccccc1C2=O`, for which the GI50 in the experiment with DMS-114 was > 97.1 µM (inactive); with LXFL 529, > 100 µM (inactive); in the experiment with RXF 631, > 78.7 µM (inactive); with SNB-78 it was 38.4 µM (inactive); in the experiment on KM-20L2, > 100 µM (inactive); in the experiment on DLD-1, > 100 µM (inactive).
For the compound `O=c1[nH]c2ccccc2cc1C(Cl)=C(Cl)Cl`, the GI50 in the experiment on DMS-114, in the experiment on XF498, with M19-MEL, in the experiment on LXFL 529, in the experiment on DMS-273 and in the experiment on SNB-78 was > 100 µM (inactive) throughout. The GI50 in the experiment with KM-20L2 and in the experiment on DLD-1 was > 100 µM (inactive) in each case.
Turning to `Cc1ccc(C)c(NC(=O)C(=O)Nn2c(S)nc3ccccc3c2=O)c1`, the GI50 in the experiment with DMS-114, in the experiment with LXFL 529, in the experiment on RXF 631, in the experiment with DMS-273, in the experiment with SNB-78 and in the experiment with KM-20L2 was > 100 µM (inactive) in each case. The GI50 in the experiment on DLD-1 was > 100 µM (inactive).
For the compound `O=C1C(c2ccccc2)=C(c2ccccc2)C(c2ccc(Sc3ccc(C4=C(c5ccccc5)C(=O)C(c5ccccc5)=C4c4ccccc4)cc3)cc2)=C1c1ccccc1`, the GI50 is > 100 µM (inactive) with DMS-114; > 100 µM (inactive) in the experiment with XF498; > 100 µM (inactive) in the experiment with M19-MEL; > 100 µM (inactive) with RXF 631; > 100 µM (inactive) in the experiment on DMS-273; 87.5 µM (inactive) in the experiment on SNB-78. Besides, the GI50 with KM-20L2 and with DLD-1 was > 100 µM (inactive) each time.
Consider `Clc1ccc2c(Cl)ncnc2c1I`, for which the GI50 in the experiment on DMS-114 was 54.3 µM (inactive); with XF498, 91.6 µM (inactive); in the experiment with M19-MEL, > 100 µM (inactive); in the experiment on LXFL 529, 34 µM (inactive); in the experiment on DMS-273 it was > 100 µM (inactive); in the experiment on KM-20L2 it was > 100 µM (inactive). Further, the GI50 with DLD-1 is > 100 µM (inactive).
As for `CCCCCCCCCCCCCCCC/C(C(=O)OC)=C(/O)C(=O)OCC`, the GI50 in the experiment with DMS-114, with M19-MEL, with LXFL 529, with DMS-273, with SNB-78 and with KM-20L2 was > 100 µM (inactive) in each case. Further, the GI50 in the experiment with DLD-1 was > 100 µM (inactive).
Consider `Cc1ccc(N2C(=O)C3C=CC(n4[nH]c(=O)n(Cc5ccccc5)c4=O)CC3C2=O)cc1` (stereo not given), for which the GI50 in the experiment with DMS-114, in the experiment on XF498, in the experiment on M19-MEL, with LXFL 529, in the experiment on DMS-273 and with SNB-78 was > 100 µM (inactive) in each case. Further, the GI50 in the experiment with KM-20L2 and in the experiment with DLD-1 was > 100 µM (inactive) in each case.
Turning to `C/C(=N/N(C=O)C[n+]1ccccc1)C(CN(CC(C)C)CC(C)C)C(=O)Nc1ccc(C)cc1C` (stereo not given), the GI50 with DMS-114 was 70.8 µM (inactive); with RXF 631 it was > 100 µM (inactive); in the experiment on KM-20L2 it was > 100 µM (inactive); in the experiment with DLD-1 it was > 100 µM (inactive).
